Source: the supplement of paper PMC10307832

Assays:
Assay in all cases: relative viability (nuclei count vs DMSO), 5 days (fraction); higher = more cells survive
AZ3146 + Vorinostat = compound: CN1CCC(CC1)OC2=CC(=C(C=C2)NC3=NC=C4C(=N3)N(C(=O)N4C)C5CCCC5)OC [AZ3146] + O=C(CCCCCCC(=O)Nc1ccccc1)NO [Vorinostat] (partner 1 µM)
Summary of the method: (§1)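 Lung cancer cell lines in 1536-well plates got either a single drug or a fixed anchor-drug dose together with five library-drug doses (not always all listed) in √10 steps, by pin tool, on the day after seeding. Nuclei were counted after 5 days, and relative viability is the treated-to-vehicle ratio of nuclei counts. Values are medians of duplicate plates.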

GSK-J4 + Olaparib = compound: CCOC(=O)CCNc1cc(N2CCc3ccccc3CC2)nc(-c2ccccn2)n1 [GSK-J4] + O=C(c1cc(Cc2n[nH]c(=O)c3ccccc23)ccc1F)N1CCN(C(=O)C2CC2)CC1 [Olaparib] (partner 8 µM)
Summary of the method: as §1

GSK-J4 + Pemetrexed = compound: CCOC(=O)CCNc1cc(N2CCc3ccccc3CC2)nc(-c2ccccn2)n1 [GSK-J4] + Nc1nc2[nH]cc(CCc3ccc(C(=O)N[C@@H](CCC(=O)O)C(=O)O)cc3)c2c(=O)[nH]1 [Pemetrexed] (partner 0.2 µM)
Summary of the method: as §1

AZ3146 + Pictilisib = compound: CN1CCC(CC1)OC2=CC(=C(C=C2)NC3=NC=C4C(=N3)N(C(=O)N4C)C5CCCC5)OC [AZ3146] + CS(=O)(=O)N1CCN(Cc2cc3nc(-c4cccc5[nH]ncc45)nc(N4CCOCC4)c3s2)CC1 [Pictilisib] (partner 1 µM)
Summary of the method: as §1

Cell Line	relative viability (AZ3146 + Vorinostat; first compound 0.08 µM)	relative viability (AZ3146 + Vorinostat; first compound 0.253 µM)	relative viability (AZ3146 + Vorinostat; first compound 0.8 µM)	relative viability (AZ3146 + Vorinostat; first compound 2.53 µM)	relative viability (AZ3146 + Vorinostat; first compound 8 µM)	relative viability (GSK-J4 + Olaparib; first compound 0.5 µM)	relative viability (GSK-J4 + Olaparib; first compound 1.581 µM)	relative viability (GSK-J4 + Olaparib; first compound 5 µM)	relative viability (GSK-J4 + Olaparib; first compound 15.81 µM)	relative viability (GSK-J4 + Olaparib; first compound 50 µM)	relative viability (GSK-J4 + Pemetrexed; first compound 0.5 µM)	relative viability (GSK-J4 + Pemetrexed; first compound 1.581 µM)	relative viability (GSK-J4 + Pemetrexed; first compound 5 µM)	relative viability (GSK-J4 + Pemetrexed; first compound 15.81 µM)	relative viability (GSK-J4 + Pemetrexed; first compound 50 µM)	relative viability (AZ3146 + Pictilisib; first compound 0.08 µM)	relative viability (AZ3146 + Pictilisib; first compound 0.253 µM)	relative viability (AZ3146 + Pictilisib; first compound 0.8 µM)	relative viability (AZ3146 + Pictilisib; first compound 2.53 µM)	relative viability (AZ3146 + Pictilisib; first compound 8 µM)
NCI-H23	0.473	0.593	0.572	0.769	0.377	0.25	0.299	0.292	0.344	0.285	0.679	0.525	0.653	0.568	0.598	0.453	0.568	0.483	0.494	0.451
NCI-H322M	0.798	0.839	0.916	0.904	0.849	0.829	0.729	0.935	0.782	0.658	0.638	0.588	0.672	0.394	0.682	0.585	0.478	0.439	0.491	0.512
NCI-H358	0.571	0.687	0.631	0.723	0.171	0.574		0.646	0.521	0.552	0.237		0.171	0.171	0.188	0.355	0.39	0.394	0.398	0.326
NCI-H441	0.674	0.803	0.557	0.821	0.647	0.605	0.487	0.406	0.515	0.422	0.26	0.226	0.303	0.249	0.284	0.46	0.532	0.467	0.537	0.503
NCI-H460	0.623	0.813	0.707	0.693	0.0632	0.384			0.433	0.343	0.0749		0.0554	0.0643	0.0656	0.293	0.323	0.297	0.416	0.461
NCI-H520	0.588	0.7	0.685	0.783	0.537	0.32	0.278	0.354	0.332	0.29	0.632	0.5	0.655	0.57	0.547	0.255	0.287	0.303	0.284	0.31
NCI-H596	0.53	0.541	0.586	0.571	0.587	0.668	0.726	0.734	0.738	0.586	0.519	0.485	0.473	0.465	0.549	0.361	0.374	0.413	0.302	0.41
